# Reference: patent US20240262878A1, “PHOTOACTIVATABLE GASDERMIN PROTEINS” (THE BOARD OF TRUSTEES OF THE UNIVERSITY OF ILLINOIS, priority 2021, published 2024)
# T1: full length human GSDMD
# T1 sequence: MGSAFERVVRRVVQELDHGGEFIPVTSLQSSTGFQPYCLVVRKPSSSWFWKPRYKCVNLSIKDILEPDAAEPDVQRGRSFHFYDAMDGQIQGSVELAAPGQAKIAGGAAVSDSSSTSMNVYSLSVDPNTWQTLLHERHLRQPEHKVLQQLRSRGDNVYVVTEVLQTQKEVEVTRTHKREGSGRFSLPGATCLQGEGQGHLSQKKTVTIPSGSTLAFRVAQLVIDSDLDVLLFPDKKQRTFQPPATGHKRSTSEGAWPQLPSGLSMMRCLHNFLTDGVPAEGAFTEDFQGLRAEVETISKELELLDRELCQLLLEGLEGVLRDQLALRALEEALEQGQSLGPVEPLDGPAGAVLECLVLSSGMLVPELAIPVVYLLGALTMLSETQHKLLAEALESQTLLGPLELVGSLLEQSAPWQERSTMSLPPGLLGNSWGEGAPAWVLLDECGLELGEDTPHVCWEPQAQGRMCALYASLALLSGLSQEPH
# How the values were obtained:
# [1] = system: bone marrow-derived macrophages (BMDM); experiment: IL-1β cytokine release ELISA; type: cell-based; settings: short-term LPS stimulation (5 minutes), mouse BMDM
# Protocol: Cytokine Release. LPS-stimulated, IL-1β cytokine release from bone-marrow monocyte-derived macrophages ([…] mice) was measured using the QUANTIKINE® ELISA kit (R&D Systems). Cells were seeded in 96-well plates and pre-treated for 10 minutes with medium, 10 μM U73122, or 10 μM wortmannin. LPS (100 ng/μL, Invivogen) was then added to the cells for 5 minutes and the cell-free supernatants were recovered and subjected to the ELISA kit according to the manufacturer's instructions. The concentration of the samples in 96-well plates was measured via absorbance at 450 nm using an Epoch Microplate Spectrophotometer (Biotek Instruments). The OD values in six technical repeats each from a total of three mice (n=18) were converted into the […] levels reported via a power law fit of a serial dilution calibration curve.
# Hela cells [2] = experiment: PhoDer activation after pretreatment with PI3K/PLC modulators, calcium flare dynamics; type: cell-based
# Protocol: (§1) Cell Culture. HeLa and RAW264.7 cells were maintained in Dulbecco's Modified Eagle Medium (DMEM) medium supplemented with 10% fetal bovine serum (FBS) and 1% penicillin and streptomycin. Cells were transfected at 50%-70% confluency using LIPOFECTAMINE® 2000 transfection reagent and incubated for 24 hours before imaging. Cells were never serum-starved. To examine endogenous inflammatory activation, RAW264.7 cells were treated with 100 ng/μL lipopolysaccharide (LPS, Invivogen) at the beginning of each experiment. Pretreatment to bias membrane composition by phosphatidylinositol 4,5-bisphosphate (PIP2) modifying enzymes was performed by incubating Hela cells in Hanks' Balanced Salt Solution (HBSS) buffer with inhibitors at 37° C. for 10 minutes to prior imaging at the following concentrations: for phosphoinositide 3-kinase (PI3K), cells were treated 10 μM wortmannin (Tocris); and for phospholipase C (PLC), cells were treated with 10 μM U73122 (Tocris). Cells were removed from the incubator and allowed to come to thermal equilibrium before being imaged in HBSS buffer at room temperature.
# (§2) Fluorescence Imaging, Optogenetic Activation, and Post-Processing. All epifluorescence imaging was performed on a customized Nikon Ti2-E microscope equipped with individual control over excitation (EX) and emission (EM) filters, a fast LED light source (Lumencor) with fluid-cooled EMCCD (Andor), motorized stage, and examined under a 40× or 100× oil immersion objective under live focus tracking. For RFP, excitation (EX) and emission (EM) filter combinations (maxima/bandwidth in nm) are indicated. Cells were imaged at 12-15 second intervals. Emission intensities of individual cells were background-subtracted before normalization to zero time point, when optogenetic activation began. In the optical setup, optogenetic activation of PhoDer was performed using an EX filter at 440/20 nm for 20-30 ms across whole fields of view. This replicated the progression of endogenous activation of GSDMD observed in LPS-stimulated RAW264.7 cells. […] Where applicable, inhibitors were treated at the indicated concentration for 15 minutes prior to imaging.
# Fluctuation Analysis and Quantification. To automate the objective isolation and quantitation of calcium flares, a post-processing algorithm was developed based on principles and normalization scheme detailed in work on photochromic stochastic optical fluctuation imaging (pcSOFI) (Dedecker et al. (2012) Proc. Natl. Acad. Sci. USA 109: 10909-10914). Briefly, fluctuation caused by the flares generate high autocorrelation signals in time-averaged series and yield high contrast at locales of the greatest ion flux. To truly reflect the local flux change, it is then normalized to remove dependence on the number of biosensors reporting at the given location using a scheme detailed previously (Mo et al. (2017) Nat. Methods 14 (4): 427-434). Using Matlab, rolling-window mean and rolling-window autocorrelation values were calculated for each pixel over each entire fluorescence time course that contained possible flares. A heuristic approach to window size was taken and a range of window sizes were examined using examples where calcium flares were visually distinct prior to setting the window size for all analyses. All such fluctuation images were then verified manually against intensity time course to ensure bone fide flare detection; particularly strong and non-overlapping flares were chosen and added to calculate kinetic parameters. […]
# full length human GSDMD = system: T1, full length human GSDMD
# Hela cells [3] = experiment: Optogenetic activation of PhoDer, membrane-targeted jRCaMP1b calcium flare imaging and fluctuation analysis; type: cell-based; settings: charge-altering mutations
# Protocol: Cloning. Cloning and subcloning were performed using the DH5a strain of E. coli. All mammalian constructs were cloned into the pcDNA3.0 vector with a modified multiple cloning site. Plasmids were generated as follows. Gasdermin D gene was obtained from Addgene. A diffusible optogenetic GSDMD, referred to herein as “PhoDer” and set forth in SEQ ID NO: 33, was constructed according to the reported domains structure by ligating three fragments into the pcDNA3.0 vector in one reaction via Gibson Assembly (New England BioLabs). For each fragment, PCR was specifically designed to create appropriate complementation. The jRCaMP1b gene, encoding a sensitive red protein calcium indicator, was obtained from Addgene. Membrane targeted calcium indicator jRCaMP1b was constructed by ligating a PCR fragment of the calcium indicator into the restriction enzyme sites BamHI and EcoRI in a modified pcDNA3.0 vector carrying a 5′ fragment encoding the N-terminal Lyn kinase localization sequence.
# as §1, §2
# Fluctuation Analysis and Quantification. To automate the objective isolation and quantitation of calcium flares, a post-processing algorithm was developed based on principles and normalization scheme detailed in work on photochromic stochastic optical fluctuation imaging (pcSOFI) (Dedecker et al. (2012) Proc. Natl. Acad. Sci. USA 109: 10909-10914). Briefly, fluctuation caused by the flares generate high autocorrelation signals in time-averaged series and yield high contrast at locales of the greatest ion flux. To truly reflect the local flux change, it is then normalized to remove dependence on the number of biosensors reporting at the given location using a scheme detailed previously (Mo et al. (2017) Nat. Methods 14 (4): 427-434). […]
# Hela cells [4] = experiment: Reversible optogenetics, cyclic activation; type: cell-based
# Protocol: Reversible Optogenetics. HeLa cells expressing a modified gasdermin protein of the invention (SEQ ID NO: 40) were subjected to cyclic activation. Whereas gasdermin lacking a photoactivatable linker has no ability to reverse and will kill the cell typically in 30 minutes or less, activation of reversible optogenetic gasdermin allow cells to stay alive for 2 hours or longer. Furthermore, upon closer examination, the cyclic activation pattern can clearly be detected in the response of these cells via autocorrelation function (FIG. 13). The “imprinting” of this cyclic pattern into the cellular response can only be possible if the optogenetic gasdermin protein is reversible.
molecule,measurement,setting,value
740 Y-P,IL-1β release,[1],failed to elicit meaningful differences
same,calcium flare occurrence / calcium response with PI3K/PLC activators,Hela cells [2],failed to elicit meaningful differences
COC[C@H]1OC(=O)c2coc3c2[C@@]1(C)C1=C(C3=O)[C@@H]2CCC(=O)[C@@]2(C)C[C@H]1OC(C)=O [wortmannin],spatial extent flares reached,"Hela cells [2]; pretreatment 10 μM, n=27",12 μm
caspase-1,micro-current recordings in a POPE/POPC planar lipid bilayer,full length human GSDMD,"upon the addition of activated GSDMD (mixture with caspase-1 to cleave the C-terminal autoinhibition domain), minute current fluctuations were detected"
Cc1cc(C)c(S(=O)(=O)Nc2cccc(C(F)(F)F)c2)c(C)c1 [m-3m3FBS],IL-1β release,[1],did not limit LPS-stimulated IL-1β release
same,calcium flare occurrence / calcium response with PI3K/PLC activators,Hela cells [2],inhibited flare occurrence for a short time
COc1ccc2c(c1)CC[C@@H]1[C@@H]2CC[C@]2(C)[C@@H](NCCCCCCN3C(=O)C=CC3=O)CC[C@@H]12 [U73122],IL-1β release,[1],enhanced
same,"pixel-wise calcium fluctuations, local pore activity per locale",Hela cells [2]; pretreated vs non-pretreated cells,highest activity per locale
same,intracellular calcium progression after PhoDer activation,Hela cells [2]; pretreatment 10 μM,"steep, cumulative rise in intracellular calcium"
"R151E/R153E: mutant at another helical region of GSDMD N-terminal domain (protein, UniProt P57764 1-484, looked up, variant R151E R153E) Gasdermin-D: MGSAFERVVRRVVQELDHGGEFIPVTSLQSSTGFQPYCLVVRKPSSSWFWKPRYKCVNLSIKDILEPDAAEPDVQRGRSFHFYDAMDGQIQGSVELAAPGQAKIAGGAAVSDSSSTSMNVYSLSVDPNTWQTLLHERHLRQPEHKVLQQLESEGDNVYVVTEVLQTQKEVEVTRTHKREGSGRFSLPGATCLQGEGQGHLSQKKTVTIPSGSTLAFRVAQLVIDSDLDVLLFPDKKQRTFQPPATGHKRSTSEGAWPQLPSGLSMMRCLHNFLTDGVPAEGAFTEDFQGLRAEVETISKELELLDRELCQLLLEGLEGVLRDQLALRALEEALEQGQSLGPVEPLDGPAGAVLECLVLSSGMLVPELAIPVVYLLGALTMLSETQHKLLAEALESQTLLGPLELVGSLLEQSAPWQERSTMSLPPGLLGNSWGEGAPAWVLLDECGLELGEDTPHVCWEPQAQGRMCALYASLALLSGLSQEPH",calcium response of mutants at other putative lipid-binding sites,Hela cells [3],either encumbering or abrogating the calcium response
"SEQ ID NO: 40: reversible optogenetic gasdermin variant, modified gasdermin protein of the invention (protein) MGSAFERVVRRVVQELDHGGEFIPVTSLQSSTGFQPYCLVVRKPSSSWFWKPRYKCVNLSIKDILEPDAAEPDVQRGRSFHFYDAMDGQIQGSVELAAPGQAKIAGGAAVSDSSSTSMNVYSLSVDPNTWQTLLHERHLRQPEHKVLQQLRSRGDNVYVVTEVLQTQKEVEVTRTHKREGSGRFSLPGATCLQGEGQGHLSQKKTVTIPSGSTLAFRVAQLVIDSDLDVLLFPDKKQRTFQPPATGHKRSTSEGAWPQLPSGLSMMRCLHNGGGGMLATTLERIEKNFVITDPRLPDNPIIFASDSFLQLTEYSREEILGRNCRFLQGPETDRATVRKIRDAIDNQTEVTVQLINYTKSGKKFWNVFHLQPMRDYKGDVQYFIGVQLDGTERLHGAAEREAVCLIKKTAFQIAEAANDENYFGGGGVPAEGAFTEDFQGLRAEVETISKELELLDRELCQLLLEGLEGVLRDQLALRALEEALEQGQSLGPVEPLDGPAGAVLECLVLSSGMLVPELAIPVVYLLGALTMLSETQHKLLAEALESQTLLGPLELVGSLLEQSAPWQERSTMSLPPGLLGNSWGEGAPAWVLLDECGLELGEDTPHVCWEPQAQGRMCALYASLALLSGLSQEPH",time cells stay alive under activation,"Hela cells [4]; HeLa cells, cyclic activation",≥ 2 h
same,reversibility (autocorrelation function of cyclic activation),Hela cells [4]; activations every 20 cycles,achieved
